In US11497740B2, “Use of Jumonji C demethylase inhibitors for the treatment and prevention of chemotherapy resistance and radioresistance in cancer” (THE BOARD OF REGENTS OF THE UNIVERSITY OF TEXAS SYSTEM, priority 2016, dated 2022):

Legend:
HR repair in U2OS cells = assay: GFP HR reporter assay, U2OS cells; format: cell-based
Method: FIGS. 29A-29B. […] FIG. 29A: U2OS cells were transfected with the NHEJ or HR constructs (0.25 ug and 0.5 ug respectively) and a pN1-mCherry plasmid (0.05 ug). Then cells were seeded in the presence or absence of JIB-04. Cells were analyzed by flow cytometry for GFP expression 12 h and 24 h after transfection using green-versus-red fluorescent plot. 10,000 cells were analyzed in each sample and NHEJ or HR Repair Frequency (% GFP+ cells/% mCherry+ cells) plotted. Average+/−SEM of triplicates for one of two representative experiments is shown. ***p<0.001 vs control (Kruskal-Wallis). FIG. 29B: Representative FACS traces for the analysis of NHEJ and HR shown in A.

[1] = test system: immortalized normal human bronchial epithelial cells HBEC3KT and HBEC30KT; assay: Clonogenic survival with IR, normal bronchial epithelial cells; format: cell-based; conditions: IC50 doses of JIB-04, 4 h prior to radiation
Method: Cells were serially diluted to appropriate concentrations and plated into 60-mm dish in triplicate for 4 h. Then cells were treated with the indicated drugs, and irradiated 4 hours later with graded doses of radiation for concurrent treatment or irradiated and 4 hours later the drugs added for post-treatment. All cells were irradiated at room temperature in ambient air using a 137Cs source (Mark 1-68 irradiator, JL Shepherd & Associated). Surviving colonies were stained with crystal violet approximately 10 to 14 days later and colonies formed with more than 50 cells were counted. Clonogenic fraction of irradiated cells was normalized to the plating efficiency of unirradiated controls. The data are presented as the mean±SD. The curve S=e^−(αD+βD2) was fitted to the experimental data using a least square fit algorithm using the program Sigma Plot 11.0 (Systat Software, Inc.).
To evaluate whether the effect of JIB-04 on DNA repair dynamics described above was cancer-selective, IC50 doses of JIB-04 in colony formation assays of immortalized normal human bronchial epithelial cells HBEC3KT and HBEC30KT were calculated (FIG. 27A). Then these doses of JIB-04 were used to pretreat cells 4 h prior to radiation and survival was measured. […]

cell cycle distribution = assay: Cell cycle analysis (PI staining); format: cell-based, Human; conditions: H1299 and A549; JIB-04 4 h with or without IR (2 Gy)
Method: NSCLCs were seeded in 6 wells plate, 24 h latter cells were pretreated with JIB-04 or DMSO for 4 h and exposed to a total dose of 2 Gy. Then cells were collected and fixed using 75% ethanol at […] for at least 24 hours. The cells were resuspended with PBS and incubated with 20 μl 1 mg/ml RNase A (Sigma) and 25 μg ml/ml propidium iodide (Sigma) for 30 min at room temperature. Experiment was done by triplicate, 20,000 cells were counted and the proportion of cells of different phase was analyzed using the software Flowjo.

H3K4me3 at DSBs = assay: γH2AX immunoprecipitation, H3K4me3 at DSBs; format: cell-based, Human; conditions: JIB-04 4 h, IR 20 Gy
Method: (§1) For Histone demethylase activity determination 10×10^6 H1299 cells were seeded in P150 plates. Next day cells were preincubated with JIB-04 for 4 h and then irradiated with 20 Gy. Media was removed from cells, washed with PBS and fixed with 3% w/v PFA, 2% w/v sucrose in PBS for 1 min. Then cells were washed, scraped into media, pelleted by centrifugation (at 500 g for 2 min) and washed with Phosphatase inhibitor 1×, 1 μM Wortmannin (WM) and protease inhibitors 1× (Sigma). Cell pellets were re-suspended in 2.5× the packed cell volume (PCV) of Nucleosome Preparation Buffer (NPB, 10 mM HEPES [pH 7.9], 10 mM KCl, 1.0 mM CaCl2, 1.5 mM MgCl2, 0.34 M sucrose, 10% glycerol, 1 mM DTT, 0.1% Triton X-100) containing Phosphatase inhibitor, 1 μM Wortmannin (WM) and protease inhibitors (Sigma) and 100 U ml-1 micrococcal nuclease (MNase) and incubated at […] for 45 min (note: WM is required to block in vitro DNA-PK/ATM activation by MNase-produced DSBs). An equal volume of Nucleosome Solubilization Buffer (NSB=Nucleosome preparation buffer+2% [v/v] NP-40, 2% [v/v] Triton X-100, 600 mM NaCl) was then added. Samples were then vortexed, sonicated briefly and centrifuged at 10,000 rpm for 10 min. […] Protein levels on samples were quantified and equal amounts of protein run on 4-12% SDS acrylamide gels. […] Quantification was done using the using ImageJ software (National Institute of Health, NIH)

H3K9me3 at DSBs = assay: γH2AX immunoprecipitation, H3K9me3 at DSBs; format: cell-based, Human; conditions: JIB-04 4 h, IR 20 Gy
Method: as §1

H1299 Parental cells = assay: Emergence of paclitaxel+carboplatin drug-tolerant colonies, H1299 Parental; format: cell-based, human; conditions: sub-lethal doses with paclitaxel+carboplatin
Text: FIGS. 8A-8E. […] Response was greater than additive, indicated by positive ΔBliss. […] Representative images from replicate assays (n=3) are shown. […] See also FIGS. 15-16.

SMILES | HR repair (HR repair in U2OS cells) | radiosensitization (clonogenic survival) [1] | cell cycle distribution (cell cycle distribution) | H3K4me3 at sites of DNA damage marked by γH2AX (H3K4me3 at DSBs) | H3K9me3 at sites of DNA damage marked by γH2AX (H3K9me3 at DSBs) | emergence of drug-tolerant persister colonies (H1299 Parental cells)
Clc1ccc(N/N=C(\c2ccccc2)c2ccccn2)nc1 [JIB-04] | inhibits HR repair | did not radiosensitize | do not Affect Cell Cycle Distribution | increased H3K4me3 | No changes in H3K9me3 | 
CCOC(=O)CCNc1cc(N2CCc3ccccc3CC2)nc(-c2ccccn2)n1 [GSK-J4] |  |  |  |  |  | prevented the emergence of drug-tolerant persister colonies
